We go through 22 compounds from patent US20240109900A1, “AZABICYCLIC SHP2 INHIBITORS” (IRBM S.P.A., priority 2021, published 2024).

Read-outs that look alike come from different tables or passages of the source. A value given as a limit tells only on which side of the number the result lay.

Experiment [1] deals with SHP-2 enzyme (Met1-Leu525) (Homo sapiens (Human), UniProt Q06124). Put plainly: SHP2 inhibition enzymatic assay. The conditions noted are these: 0.5 nM SHP-2 activated by 500 nM IRS1 peptide, 75 μM DiFMUP substrate; read-out: SHP2wt-IC50. In kind it is biochemical. A digest of the protocol:
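Compounds were preincubated 30 min with 0.5 nM SHP-2 (Met1-Leu525) plus 500 nM IRS1 activating peptide (pH 7.2 HEPES, 5 mM DTT), then 75 μM DiFMUP substrate reacted 30 min at room temperature. After bpV quench, DiFMUP fluorescence gave % inhibition; four-parameter logistic fit yielded IC50.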

Experiment [2] concerns ERK phosphorylation in KYSE-520 cells. Put plainly: Phospho-ERK cellular assay. The conditions noted are these: KYSE-520 cells, 2 h at 37° C., phospho-ERK1/2 (Thr202/Tyr204) TR-FRET, read-out: PERK IC50. The format is cell-based. The procedure, abridged: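 TR-FRET read-out of ERK1/2 Thr202/Tyr204 phosphorylation was taken after overnight antibody incubation at room temperature. Before that, KYSE-520 cells were treated 2 h at 37 °C with compound dilutions and lysed 30 min. Percent inhibition relative to vehicle and cell-free wells was fitted four-parametrically to give IC50.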

SHP-2 enzyme (Met1-Leu525), sequence (Q06124 1-525): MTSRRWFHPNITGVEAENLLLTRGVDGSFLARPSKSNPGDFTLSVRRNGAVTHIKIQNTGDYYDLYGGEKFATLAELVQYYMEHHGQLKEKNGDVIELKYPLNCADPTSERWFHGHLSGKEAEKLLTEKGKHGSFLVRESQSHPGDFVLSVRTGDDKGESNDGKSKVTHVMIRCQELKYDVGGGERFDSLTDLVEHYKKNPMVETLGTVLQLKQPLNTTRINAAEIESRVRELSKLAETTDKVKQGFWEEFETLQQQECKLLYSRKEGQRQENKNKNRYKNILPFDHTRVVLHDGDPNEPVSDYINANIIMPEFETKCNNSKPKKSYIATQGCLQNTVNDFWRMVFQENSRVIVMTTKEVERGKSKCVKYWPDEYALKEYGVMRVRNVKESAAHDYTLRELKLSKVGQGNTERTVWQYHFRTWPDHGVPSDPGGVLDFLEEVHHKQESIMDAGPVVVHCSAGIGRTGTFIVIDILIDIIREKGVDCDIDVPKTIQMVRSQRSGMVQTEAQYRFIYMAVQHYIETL

Regarding `NC[C@]1(c2ccccc2F)[C@@H]2CCN(c3cnc4c(-c5ccc6cc[nH]c(=O)c6c5)n[nH]c4n3)C[C@@H]21` [Example 294, 7-(6-((1S,6R,7R)-7-(aminomethyl)-7-(2-fluorophenyl)-3-azabicyclo[4.1.0]heptan-3-yl)-1H-pyrazolo[3,4-b]pyrazin-3-yl)isoquinolin-1(2H)-one], the IC50 in experiment [1] was below 500 nM; in experiment [2] (Homo sapiens, KYSE-520, 2 h) it was below 1000 nM.

For the compound `NC[C@]1(c2ccccc2F)[C@@H]2CCN(c3cnc4c(-c5ccc(-c6noc(O)n6)cc5Cl)n[nH]c4n3)C[C@@H]21` [Example 295, 3-(4-(6-((1S,6R,7R)-7-(aminomethyl)-7-(2-fluorophenyl)-3-azabicyclo[4.1.0]heptan-3-yl)-1H-pyrazolo[3,4-b]pyrazin-3-yl)-3-chlorophenyl)-1,2,4-oxadiazol-5-ol], the IC50 in experiment [1] was below 500 nM; in experiment [2] (Homo sapiens, KYSE-520, 2 h), below 1000 nM.

Regarding `NC[C@]1(c2ccccc2F)[C@@H]2CCN(c3cnc4c(-c5ccc(-c6ccn[nH]6)cc5Cl)n[nH]c4n3)C[C@@H]21` [Example 296, ((1S,6R,7R)-3-(3-(2-chloro-4-(1H-pyrazol-5-yl)phenyl)-1H-pyrazolo[3,4-b]pyrazin-6-yl)-7-(2-fluorophenyl)-3-azabicyclo[4.1.0]heptan-7-yl)methanamine], the IC50 was below 500 nM in experiment [1] and below 1000 nM in experiment [2] (Homo sapiens, KYSE-520, 2 h).

With `Cn1cc(-c2ccc(-c3n[nH]c4nc(N5CC[C@@H]6[C@H](C5)[C@@]6(CN)c5ccccc5F)cnc34)c(Cl)c2)cn1` [Example 297, ((1S,6R,7R)-3-(3-(2-chloro-4-(1-methyl-1H-pyrazol-4-yl)phenyl)-1H-pyrazolo[3,4-b]pyrazin-6-yl)-7-(2-fluorophenyl)-3-azabicyclo[4.1.0]heptan-7-yl)methanamine], the IC50 was below 500 nM in experiment [1] and below 1000 nM in experiment [2] (Homo sapiens, KYSE-520, 2 h).

On to `NC[C@]1(c2ccccc2F)[C@@H]2CCN(c3cnc4c(-c5ccc6[nH]c(=O)[nH]c6c5Cl)n[nH]c4n3)C[C@@H]21` [Example 302], for which the figures for the half-inhibitory concentration (IC50) in experiment [1] and in experiment [2] were below 500 nM and below 1000 nM, respectively.

For `NC[C@]1(c2cc(F)cc(F)c2)[C@@H]2CCN(c3cnc4c(-c5ccc6c(=O)[nH]ccc6c5F)n[nH]c4n3)C[C@@H]21` [Example 306, 6-(6-((1S,6R,7R)-7-(aminomethyl)-7-(3,5-difluorophenyl)-3-azabicyclo[4.1.0]heptan-3-yl)-1H-pyrazolo[3,4-b]pyrazin-3-yl)-5-fluoroisoquinolin-1(2H)-one], the IC50 in experiment [1] was below 500 nM; in experiment [2] (Homo sapiens, KYSE-520, 2 h), below 1000 nM.

Consider `NC[C@]1(c2ccccc2F)[C@@H]2CCN(c3cnc4c(-c5ccc6nc(C(F)(F)F)ncc6c5)n[nH]c4n3)C[C@@H]21` [Example 309, ((1S,6R,7R)-7-(2-fluorophenyl)-3-(3-(2-(trifluoromethyl)quinazolin-6-yl)-1H-pyrazolo[3,4-b]pyrazin-6-yl)-3-azabicyclo[4.1.0]heptan-7-yl)methanamine], for which the 50% inhibitory concentration (IC50) in experiment [1] was below 500 nM; in experiment [2] (Homo sapiens, KYSE-520, 2 h), above 5000 nM.

`NC[C@]1(c2ccccc2F)[C@@H]2CCN(c3cnc4c(-c5ccc6c(c5Cl)NCCO6)n[nH]c4n3)C[C@@H]21` [Example 311]: the half-maximal inhibitory concentration (IC50) in experiment [1] was below 500 nM; in experiment [2], below 1000 nM.

On to `NC[C@]1(c2ccccc2F)[C@@H]2CCN(c3cnc4c(-c5ccc6c(c5)CCN6)n[nH]c4n3)C[C@@H]21` [Example 312, ((1S,6R,7R)-7-(2-fluorophenyl)-3-(3-(indolin-5-yl)-1H-pyrazolo[3,4-b]pyrazin-6-yl)-3-azabicyclo[4.1.0]heptan-7-yl)methanamine], for which the IC50 in experiment [1] is below 500 nM; in experiment [2] (Homo sapiens, KYSE-520, 2 h), below 1000 nM.

For the compound `Cn1ccc2c(-c3n[nH]c4nc(N5CC[C@@H]6[C@H](C5)[C@@]6(CN)c5ccccc5F)cnc34)ccc(F)c2c1=O` [Example 315, 5-(6-((1S,6R,7R)-7-(aminomethyl)-7-(2-fluorophenyl)-3-azabicyclo[4.1.0]heptan-3-yl)-1H-pyrazolo[3,4-b]pyrazin-3-yl)-8-fluoro-2-methylisoquinolin-1(2H)-one], the IC50 in experiment [1] is below 500 nM; in experiment [2] (Homo sapiens, KYSE-520, 2 h) it was below 1000 nM.

As to `Cn1ccc2c(F)c(-c3n[nH]c4nc(N5CC[C@@H]6[C@H](C5)[C@@]6(CN)c5ccccc5F)cnc34)ccc2c1=O` [Example 316, 6-(6-((1S,6R,7R)-7-(aminomethyl)-7-(2-fluorophenyl)-3-azabicyclo[4.1.0]heptan-3-yl)-1H-pyrazolo[3,4-b]pyrazin-3-yl)-5-fluoro-2-methylisoquinolin-1(2H)-one], the half-maximal inhibitory concentration (IC50) in experiment [1] was below 500 nM; in experiment [2] (Homo sapiens, KYSE-520, 2 h), below 1000 nM.

On to `Cn1c(=O)n(C)c2c(Cl)c(-c3n[nH]c4nc(N5CC[C@@H]6[C@H](C5)[C@@]6(CN)c5ccccc5F)cnc34)ccc21` [Example 317, 5-(6-((1S,6R,7R)-7-(aminomethyl)-7-(2-fluorophenyl)-3-azabicyclo[4.1.0]heptan-3-yl)-1H-pyrazolo[3,4-b]pyrazin-3-yl)-4-chloro-1,3-dimethyl-1,3-dihydro-2H-benzo[d]imidazol-2-one], for which the 50% inhibitory concentration (IC50) in experiment [1] was below 500 nM; in experiment [2] (Homo sapiens, KYSE-520, 2 h), below 1000 nM.

With `Cn1c(=O)[nH]c2ccc(-c3n[nH]c4nc(N5CC[C@@H]6[C@H](C5)[C@@]6(CN)c5ccccc5F)cnc34)cc21` [Example 320, 6-(6-((1S,6R,7R)-7-(aminomethyl)-7-(2-fluorophenyl)-3-azabicyclo[4.1.0]heptan-3-yl)-1H-pyrazolo[3,4-b]pyrazin-3-yl)-1-methyl-1,3-dihydro-2H-benzo[d]imidazol-2-one], the IC50 in experiment [1] is below 500 nM; in experiment [2] (Homo sapiens, KYSE-520, 2 h), below 1000 nM.

For the compound `NC[C@]1(c2ccccc2F)[C@@H]2CCN(c3cnc4c(-c5cc(F)c(O)c(F)c5)n[nH]c4n3)C[C@@H]21` [Example 322, 4-(6-((1S,6R,7R)-7-(aminomethyl)-7-(2-fluorophenyl)-3-azabicyclo[4.1.0]heptan-3-yl)-1H-pyrazolo[3,4-b]pyrazin-3-yl)-2,6-difluorophenol], the IC50 in experiment [1] was below 500 nM; in experiment [2] (Homo sapiens, KYSE-520, 2 h), below 1000 nM.

For the compound `NC[C@]1(c2ccccc2F)[C@@H]2CCN(c3cnc4c(-c5ccc(-c6cc(F)cc(F)c6)cc5Cl)n[nH]c4n3)C[C@@H]21` [Example 323, ((1S,6R,7R)-3-(3-(3-chloro-3′,5′-difluoro-[1,1′-biphenyl]-4-yl)-1H-pyrazolo[3,4-b]pyrazin-6-yl)-7-(2-fluorophenyl)-3-azabicyclo[4.1.0]heptan-7-yl)methanamine], the IC50 was below 500 nM in experiment [1] and below 1000 nM in experiment [2] (Homo sapiens, KYSE-520, 2 h).

Consider `NC[C@]1(c2ccccc2F)[C@@H]2CCN(c3cnc4c(-c5ccc6nn(CC(N)=O)cc6c5Cl)n[nH]c4n3)C[C@@H]21` [Example 324, 2-(5-(6-((1S,6R,7R)-7-(aminomethyl)-7-(2-fluorophenyl)-3-azabicyclo[4.1.0]heptan-3-yl)-1H-pyrazolo[3,4-b]pyrazin-3-yl)-4-chloro-2H-indazol-2-yl)acetamide], for which the IC50 is below 500 nM in experiment [1] and below 1000 nM in experiment [2] (Homo sapiens, KYSE-520, 2 h).

For `CC(C)n1ncc2c(Cl)c(-c3n[nH]c4nc(N5CC[C@@H]6[C@H](C5)[C@@]6(CN)c5ccccc5F)cnc34)ccc21` [Example 325, ((1S,6R,7R)-3-(3-(4-chloro-1-isopropyl-1H-indazol-5-yl)-1H-pyrazolo[3,4-b]pyrazin-6-yl)-7-(2-fluorophenyl)-3-azabicyclo[4.1.0]heptan-7-yl)methanamine], the IC50 is below 500 nM in experiment [1] and below 1000 nM in experiment [2] (Homo sapiens, KYSE-520, 2 h).

`NC[C@]1(c2ccccc2F)[C@@H]2CCN(c3cnc4c(-c5ccc(N6CCCC6=O)cc5Cl)n[nH]c4n3)C[C@@H]21` [Example 326, 1-(4-(6-((1S,6R,7R)-7-(aminomethyl)-7-(2-fluorophenyl)-3-azabicyclo[4.1.0]heptan-3-yl)-1H-pyrazolo[3,4-b]pyrazin-3-yl)-3-chlorophenyl)pyrrolidin-2-one]: the IC50 in experiment [1] is below 500 nM; in experiment [2] (Homo sapiens, KYSE-520, 2 h), below 1000 nM.

In the case of `NC[C@]1(c2ccccc2F)[C@@H]2CCN(c3cnc4c(-c5ccc6ncnn6c5)n[nH]c4n3)C[C@@H]21` [Example 327, ((1S,6R,7R)-3-(3-([1,2,4]triazolo[1,5-a]pyridin-6-yl)-1H-pyrazolo[3,4-b]pyrazin-6-yl)-7-(2-fluorophenyl)-3-azabicyclo[4.1.0]heptan-7-yl)methanamine], the IC50 in experiment [1] is below 500 nM; in experiment [2] (Homo sapiens, KYSE-520, 2 h) it was below 1000 nM.

`Cn1cnc2c(Cl)c(-c3n[nH]c4nc(N5CC[C@@H]6[C@H](C5)[C@@]6(CN)c5ccccc5F)cnc34)ccc21` [Example 329, ((1S,6R,7R)-3-(3-(4-chloro-1-methyl-1H-benzo[d]imidazol-5-yl)-1H-pyrazolo[3,4-b]pyrazin-6-yl)-7-(2-fluorophenyl)-3-azabicyclo[4.1.0]heptan-7-yl)methanamine]: the IC50 was below 500 nM in experiment [1] and below 1000 nM in experiment [2] (Homo sapiens, KYSE-520, 2 h).

For `NC[C@]1(c2ccccc2F)[C@@H]2CCN(c3cnc4c(-c5cc(F)cc(F)c5)n[nH]c4n3)C[C@@H]21` [Example 330, ((1S,6R,7R)-3-(3-(3,5-difluorophenyl)-1H-pyrazolo[3,4-b]pyrazin-6-yl)-7-(2-fluorophenyl)-3-azabicyclo[4.1.0]heptan-7-yl)methanamine], the IC50 was below 500 nM in experiment [1] and below 1000 nM in experiment [2] (Homo sapiens, KYSE-520, 2 h).

Consider `NC[C@]1(c2ccccc2F)[C@@H]2CCN(c3cnc4c(-c5ccc(O)c(F)c5)n[nH]c4n3)C[C@@H]21` [Example 331, 4-(6-((1S,6R,7R)-7-(aminomethyl)-7-(2-fluorophenyl)-3-azabicyclo[4.1.0]heptan-3-yl)-1H-pyrazolo[3,4-b]pyrazin-3-yl)-2-fluorophenol], for which the half-inhibitory concentration (IC50) in experiment [1] is below 500 nM; in experiment [2] (Homo sapiens, KYSE-520, 2 h), below 1000 nM.

The term IC50 denotes the concentration needed to halve the response being measured.
